Bounds are passed on as bounds.

`CCNC(=O)n1nc(Oc2cc(OCC)ccc2[N+](=O)[O-])cc1C` registered a melting point of 73 to 75 °C. Compound `CC(=O)NC[C@H]1CN(c2ccc(N3CCC(F)(CI)CC3)c(F)c2)C(=O)O1` yielded a melting point of 166 to 168 °C. As to `N#CCc1cc(CO)cs1`, the melting point was in the range of 45 to 47 °C. `Cc1cc2c(cc1C)C(C(F)(F)F)(C(F)(F)F)c1cc3c(cc1O2)Oc1cc(C)c(C)cc1C3(C(F)(F)F)C(F)(F)F` gave a melting point of 242 to 243 °C. The value for `CCc1c(C(=O)O)[nH]c2c1C(=O)CC(C)(C)C2` was greater than 198 °C; that for `CC(=O)SCCC(=O)OC(=O)CO` was 150 to 157 °C; that for `CC12CCC3C(CCC4CC(=O)CC(C)(O)C43C)C1C(O)CC2=O` (configuration not stated) was 227 to 229 °C. `C=CCOc1ccc(-c2cccc(C#N)c2)cc1` registered a melting point of 80 to 90 °C.

As for `Cc1nc(CC2OC(CO)C(O)C2O)n2nc(Cl)ccc12` (configuration not stated), the melting point was in the range of 171 to 174 °C. The compound `CCCCOC(=O)c1ccc(N2CCN(CC=Cc3ccc(Cl)cc3)CC2)cc1` returned a melting point of 115 to 117 °C. `O=S(=O)(C(/C=C/c1ccc(Cl)cc1)c1c(F)c(F)c(F)c(F)c1F)C(/C=C/c1ccc(Cl)cc1)c1c(F)c(F)c(F)c(F)c1F` (configuration not stated) registered a melting point of 154 to 155 °C. As for `COCC(C)Nc1cc(-c2ccnc(Nc3cccc(Cl)c3)n2)cc(Cl)n1` (configuration not stated), the melting point lay in the range of 128 to 129 °C. Regarding `O=C(O)c1oc2cc(O)ccc2c(=O)c1C(=O)O`, the melting point fell in the range of 255 to 257 °C. Take `CC(=O)OCC1Cc2cc(S(=O)(=O)N(C)C)c(Cl)c(Cl)c2O1` (configuration not stated): the melting point is 159 to 160 °C. The value for `Cn1c2ccc(Cl)cc2c2c(CC(=O)O)nn(-c3ccccc3)c(=O)c21` was 206 to 208 °C; that for `C(=C(c1ccccc1)c1ccccc1)C1CCN(CCCCCCCCCCc2cccnc2)CC1` was 63 to 65 °C; that for `CC(C)C[C@H](NC(=O)Nc1cccc2ccccc12)C(=O)NC1CCOC1O` (some centres not stated) was 177 to 178 °C. For `Cn1c(=O)c2c(nc(N3CCC(NC(=O)OC(C)(C)C)C3)n2Cc2ccccc2Br)n(C)c1=O` (configuration not stated), the melting point lay within 104 to 106 °C. The value for `O=C(O)CCc1cccc(NC(=O)NCC(=O)N2[C@@H](c3ccccc3)CC[C@H]2c2ccccc2)c1` was 170 °C; that for `COC(=O)C12COc3cc(C(F)(F)F)ccc3C1=NN(C(=O)N(C)c1ccc(C(F)(F)F)cc1)C2` (configuration not stated) was 105 to 111 °C; that for `C#CCOc1nc(C(F)(F)F)cc(=O)n1-c1cc(C(=O)OC(C)C)c(Cl)cc1F` was 117 to 119 °C. Regarding `CC(C)c1cc([N+](=O)[O-])cc(C(C)C)c1OS(N)(=O)=O`, the melting point was in the range of 163 to 167 °C.

`COc1ccccc1Nc1nc2c(-c3ccc(C(F)(F)F)cc3)cccn2n1` had a melting point of 184 to 186 °C. The value for `Cc1oc(-c2ccccc2)nc1CCOc1ccc(C[C@H](NC(=O)C=Cc2ccco2)C(=O)O)cc1` was 199 to 201 °C; that for `NC1CC(N)(C(=O)O)C2C(C(=O)O)C12` (configuration not stated) was greater than 275 °C; that for `O=C(NC(=O)c1ccccc1)NC1CCCc2sccc21` (configuration not stated) was 189 to 194 °C.

Take `COc1ccc(C2(Cn3ccnc3)CC(CNc3ccccc3C)ON2C)cc1` (configuration not stated): the melting point was 110 to 111 °C. The value for `CNc1ccnc2c1c(=O)n(C)c(=O)n2C` was 179 to 180 °C; that for `CC(C)(C)OC(=O)Nc1cc(N2CCOCC2)c(I)cc1[N+](=O)[O-]` was 43 to 44 °C; that for `CCOC(=O)c1cnc2c([N+](=O)[O-])cccc2c1N(C)C` was 76 to 77 °C. The compound `Cc1nnc(C=Cc2ccccc2OCC2CO2)s1` (configuration not stated) gave a melting point of 134 to 135 °C. Take `CNC(=CC#N)c1ccc2ccccc2c1`: the melting point stood at 138 °C. The value for `ON=C(c1ccc(CN2CCOCC2)cc1)c1cccc2nc(N[C@@H]3CCc4ccccc43)ccc12` was 167 °C. `CC(=O)Nc1nc2c(ncn2COCCOC(C)=O)c(=O)[nH]1` returned a melting point of 202 to 204 °C. On to `O=C1NCCN1c1ccc(S(=O)(=O)Nc2cccc(Cl)c2)cc1`, for which the melting point is 180 to 182 °C. `Cc1ccc(C(=O)c2noc(CC(=O)O)n2)cc1` gave a melting point of 140 to 141 °C.

`c1ccc(-c2cc(N3CCNCC3)nc3ccccc23)cc1` had a melting point of 133 to 134 °C. Turning to `CC(C)(C)NNC(=S)c1ccccc1`, the melting point was 165 to 168 °C. For `OC(Cn1cnnc1)(Cn1cncn1)Cn1cncn1`, the melting point amounted to 220 °C.

`COc1cccc(CNC(=O)c2nc3scc(COCc4ccc(CO)cc4)c3c(=O)[nH]2)c1` showed a melting point of 156 to 157 °C.

In the case of `CCc1cccc2c3c([nH]c12)C(CC)(CC=N)OCC3` (configuration not stated), the melting point lay in the range of 101 to 103 °C.

`Cc1ccc(NC(=O)N(C)Cc2cccc3c2CN(C2CCC(=O)NC2=O)C3=O)cc1C` (configuration not stated) gave a melting point of 228 to 230 °C. `Cc1cc(C)c2c(c1)C=C(C(=O)O)CC2` registered a melting point of 194 to 195 °C. The compound `CC12CCC(C(=NO)C1=O)C(C)(C)O2` (configuration not stated) showed a melting point of 158 to 159 °C. `N#Cc1cnn2c(C(F)(F)F)cc(-c3ccc(F)cc3F)nc12` displayed a melting point of 149 °C. In the case of `Cc1nc2c3c(c(C(=O)N4CC4)cc2n1C)CCC(c1ccccc1)O3` (configuration not stated), the melting point was 201 to 204 °C. For `O=C(O)/C=C/c1ccc(OS(=O)(=O)C(F)(F)F)cc1`, the melting point came to 194 °C.

Consider `Cc1ccccc1-c1cc(Cl)ncc1C#N`, for which the melting point stood at 112 °C. `CCC(=O)Cc1cc(OC2CCCC2)ccc1NC(=O)OC(C)(C)C` had a melting point of 71 to 73 °C. As for `COC(=O)c1cccc(C=CC(=O)O)c1`, the melting point lay in the range of 189 to 190 °C. The figure for `CCN(CC)CC1CCCCN1CC(=O)N1c2ccccc2NC(=O)c2cscc21` (configuration not stated) is 163 to 164 °C; for `O=C(O)C=C1CC(C(=O)OCc2ccccc2)Nc2cc(Cl)cc(Cl)c21` (racemic) it is 210 to 212 °C. Regarding `CN(c1cc(OC(F)(F)F)cc2cc(C3=NCC(CC(N)=O)S3)[nH]c12)S(=O)(=O)c1cccs1` (configuration not stated), the melting point fell in the range of 202 to 203 °C. The value for `CCOC(=O)C1=C(N(C)C)N=C(C)C(C(=O)OCC)C1c1ccccc1C` (configuration not stated) was 88 °C; that for `CN1CCC(c2c[nH]c3ccc(NC(=O)c4cccc(F)c4)nc23)CC1` was 129 to 130 °C; that for `CC(=O)SCCN(CCC1CCCCC1)C(=O)N[C@@H](C)C(=O)O` was 89.5 to 90.5 °C.

On to `COc1ccc(-c2cc(-c3cc(C)ns3)c(=O)n(C)c2-c2ccncc2)cc1`, for which the melting point lay within 195 to 198 °C. In turn, `CCc1[nH]n(C2CCCC2)c2nc(C3CCNC4CCCCC43)nc(=O)c1-2` (configuration not stated) returned a melting point greater than 300 °C. As for `COC(=O)c1ccc(CN2C(=O)CCc3c(CC4SC(=O)NC4=O)ccc(OC)c32)cc1` (configuration not stated), the melting point fell in the range of 193 to 196 °C. `N#Cc1cc2c(c(C(=O)O)c1-c1ccccc1)NCCC2C(=O)O` (configuration not stated) came in with a melting point of 231 to 232 °C. For `C[C@@H](NC(=O)[C@@H](NCc1nccn1C)C(C)(C)C)C(C)(C)C`, the melting point was 131 to 132 °C. `CCc1cc2c3c(cc(C)c2[nH]c1=O)CC(C)(CN=[N+]=[N-])O3` (configuration not stated) yielded a melting point of 211 to 212 °C. In turn, `COc1cc2c(cc1-c1ccccc1F)NC(=O)CC(c1ccnc(C#N)c1)=N2` displayed a melting point of 240 to 242 °C. Compound `CC1(N)CN(c2c(F)cc3c(=O)c(C(=O)O)cn(-c4ccc(F)cc4F)c3c2F)C1` had a melting point of 185 to 186 °C.

In turn, `CC(=O)OC1O[C@H](CC#N)[C@@H](OC(=O)c2ccccc2)[C@H]1OC(=O)c1ccccc1` (some centres not stated) came in with a melting point of 124 to 126 °C. Consider `COc1ccc(-c2ccc3c(c2)C=C(C(=O)Nc2ccc(CN(C)C4CCC5(CC4)OCCO5)cc2)CCS3(=O)=O)cc1`, for which the melting point was in the range of 222 to 228 °C. The figure for `CNC(=O)c1cc(-c2cnn(C)c2)cc(F)c1Nc1nc(Cl)ncc1Cl` is 220 to 221 °C; for `COc1ccc(-c2nc(C(=O)c3ccc([N+](=O)[O-])c(OC)c3)n3ccccc23)cc1` it is 185 °C; for `COC1=CC(=O)c2cc(O)ccc2C1=O` it is 264 to 267 °C.

Compound `NC(=O)C1(c2c(F)cccc2Cl)CC1` showed a melting point of 98 to 102 °C. The figure for `COC(=O)c1cc2cc3[nH]c(=O)oc3cc2[nH]1` is 267 to 277 °C; for `C=Cc1cc(C)cc(C)c1CC(=O)N(O)C1(C(=O)OC)CCN(OC)CC1` it is 177 to 179 °C; for `Cc1ccc(C(=O)Nc2c(NC(=O)CN3CCN(c4ccccc4C#N)CC3)ccc3c2C(=O)c2ccccc2C3=O)cc1` it is 238 to 239 °C. Compound `COC(=O)CCc1ccc(NC(=O)OC(C)(C)C)cc1` registered a melting point of 72 to 73.5 °C. The figure for `COc1ccc([C@@H]2O[C@@](O[Si](C)(C)C)(C(F)(F)F)[C@H](Cc3ccccc3)N2C(=O)OCc2ccccc2)cc1` is 41 to 42 °C; for `O=C1NOCCN1c1ccc(Cl)c(Cl)c1` it is 152 °C; for `COc1cc(OC)nc(Oc2cccc(Oc3nc(OC)cc(OC)n3)c2C)n1` it is 140 °C.

Compound `CCOC(=O)C(CC)=C(C)NC(=O)Nc1cc(OC(C)C)c(Cl)cc1F` returned a melting point of 112 to 114 °C. The compound `CCCCCCCNC(=O)N(C)c1cccc(-c2ccc(CCC(=O)O)cc2OCCC(C)C)c1` had a melting point of 60 to 62 °C. Compound `CC(Cc1c[nH]c2ccccc12)(NC(=O)OC1C2CC3CC(C2)CC1C3)C(=O)NC(CC(=O)O)Cc1ccc(N)cc1` (configuration not stated) had a melting point of 115 to 120 °C.

For the compound `CCc1ccc2c(c1)C(=O)c1ccc(-c3nnn[nH]3)cc1S2(=O)=O`, the melting point amounted to 239 °C. Compound `O=C(O)[C@H](Cc1ccccc1)NS(=O)(=O)c1ccc(Cl)cc1` returned a melting point of 132 to 134 °C. For `Nc1cc(=O)n(Cc2cccc(C(F)(F)F)c2)[nH]1`, the melting point was found to be 130 °C.

`CC1(C)Oc2c(Cl)cc(Cl)cc2[C@@H](Br)[C@@H]1O` (relative stereo) had a melting point of 46 °C.

Consider `N#Cc1ncn2c1N(C(=O)CN1CCC(c3ccccc3)CC1)CC=C2c1cccc(C(F)(F)F)c1`, for which the melting point is 174 to 175 °C. The figure for `COc1ccc(Cc2cc(C3CCN(C(=O)c4ccccc4)CC3)nc(N)n2)cc1` is 170 to 171 °C; for `COc1ccc(-c2nc3c(N)cccc3n2Cc2c(F)cccc2F)c(F)c1` it is 200 to 202 °C.

The term melting point denotes the temperature, or range, at which the solid turns liquid.
